Results from publication PMC10497752, “Heparins are potent inhibitors of ectonucleotide pyrophosphatase/phospho-diesterase-1 (NPP1) – a promising target for the immunotherapy of cancer” (Frontiers in Immunology, 2023).

Assays:
[1] = tested on: ectonucleotidases expressed in U87 cell membrane preparations; assay: Enzymatic assay on U87 cell membrane preparations (adenosine formation, CE); type: biochemical, human; conditions: 6 at 3 and 30 µM, 7 at 35 µM
Description: U87 glioblastoma cells were grown in cell culture dishes until reaching a fully covered confluent cell layer. Cells were cultivated at 37°C and 5% CO2 in DMEM with additions of 10% FCS, 1% penicillin/streptomycin (P/S) mixture and 1% L-glutamine. When confluent, the cell culture media was carefully removed and cells were frozen at -20°C overnight. The cells were then scraped off with a cell scraper using 2-3 mL of buffer (5 mM Tris, 2 mM EDTA, pH 7.4), homogenized and centrifuged for 10 min at 1000 g. The supernatant was collected and centrifuged for 60 min at 48000 g and 4°C. The pellet was then resuspended twice with Tris buffer, pH 7.4, followed by vortexing and centrifugation. The whole procedure was performed on ice. Finally, the pellet was resuspended and homogenized. A protein concentration of 1.5 mg/mL was determined with the Bradford method ([35]), and the protein was kept at -20°C until used. The enzymatic assay was performed by incubating the membrane preparation and the substrate at 37°C and 500 rpm for 30 min, followed by heat inactivation at 95°C for 5 min. For the determination of kinetic parameters, several substrate concentrations (from 6 to 500 µM of ATP or AMP) were utilized and incubated with 10 µg of membrane preparation for 30 min at 37°C, followed by heat inactivation. Capillary electrophoresis (CE) was used for analysis and quantification of the enzymatic product according to published procedures ([11], [36]). For the determination of the enzymatic activity 400 µM of ATP were employed, and three different amounts of membrane preparation (6, 10 and 30 µg of protein) were utilized. A positive control using the known NPP1 inhibitor PSB-POM-141 (20 µM) was performed ([19]). Data were obtained from three independent experiments each in duplicate measurements. […] Controls were run in parallel.

[2] = tested on: U87 human glioblastoma cells; assay: U87 cell-based assay, extracellular adenosine formation from ATP (CE-UV); conditions: U-87 MG, 300 µM ATP, 3 h, DP and EHNA, 10 µg/mL (~ 6 µM)
Description: U87 human glioblastoma cells were grown in cell culture flasks until reaching a fully covered confluent cell layer. Cells were cultivated at 37°C and 5% CO2 in DMEM with additions of 10% FCS, 1% penicillin/streptomycin and 1% L-glutamine. The cells were rinsed with phosphate-buffered saline (PBS) and detached with EDTA. Thereafter, they were counted by a Cell Counter CASY® 1 Model TT (Schärfe System GmbH, Reutlingen, Germany) to retrieve the number of viable cells, and washed three times with PBS before they were resuspended in Krebs-HEPES buffer at a concentration of 10^6 cells/mL ([37]). Then, 1 mL of cell suspension was transferred into a 24-well plate. The cells were pretreated with the nucleoside transport inhibitor dipyridamole (20 µM) for 30 min ([38]). Adenosine deaminase (ADA) activity was inhibited by the addition of 1 µM of the inhibitor EHNA (erythro-9-amino-β-hexyl-α-methyl-9H-purine-9-ethanol hydrochloride) ([39]). Heparins, their non-anticoagulative analogs, and the known ectonucleotidase inhibitor PSB-POM-141 ([20]) were added. The samples were incubated with 300 µM of ATP for 3 h at 37°C and 5% CO2. […]
The percentage of inhibition of adenosine format ion in U87 cell supernatants by heparin derivatives was calculated from the conversion rate as follows: […]

Question: For `CO[C@H]1O[C@H](COS(=O)(=O)O)[C@@H](O[C@@H]2O[C@@H](C(=O)O)[C@@H](O[C@H]3O[C@H](COS(=O)(=O)O)[C@@H](O[C@@H]4O[C@H](C(=O)O)[C@@H](O[C@H]5O[C@H](COS(=O)(=O)O)[C@@H](O)[C@H](O)[C@H]5NS(=O)(=O)O)[C@H](O)[C@H]4O)[C@H](OS(=O)(=O)O)[C@H]3NS(=O)(=O)O)[C@H](O)[C@H]2OS(=O)(=O)O)[C@H](O)[C@H]1NS(=O)(=O)O` [Compound 6, Fondaparinux], which “inhibition of the formation of adenosine from ATP” value [1] is on record?
Answer: inhibited the formation of adenosine in a dose-dependent manner

Question: What about the inhibition at 10 µg/mL [2] of the same compound?
Answer: 60%
